Reference: US9827223B2 (priority 2001, dated 2017)
Where two headings read alike, the source gives them in different places.

How the values were obtained:
VR1eGFP [1] = biological target: T1, VR1eGFP (Rattus norvegicus, UniProt O35433); assay type: cell-based
T1 construct: expressed in transfected cells; host or cells: Cos7 and HEK293 cells, transient transfection

VR1eGFP-expressing cells = assay type: cell-based
[2] = rat, in vivo, cited from earlier work
eGFP- and e-tagged VR1 = biological target: T2, eGFP- and e-tagged VR1 (Rattus norvegicus, UniProt O35433); assay type: binding
T2 construct: expressed in transfected cells; host or cells: Cos7 cells

VR1eGFP [3] = biological target: T1, VR1eGFP; experiment: cell-based; conditions: N=3; read-out: ED50 of induced Ca2+ uptake
[4] = biological target: T3, VR1ε (C-terminal epsilon epitope-tagged vanilloid 1 receptor) (Rattus norvegicus, UniProt O35433); assay type: cell-based
T3 construct: expressed in transfected cells; host or cells: NIH 3T3 cells, G418-selected colony A5, pMTH-VR1ε plasmid

VR1eGFP [5] = biological target: T1, VR1eGFP; assay type: cell-based; conditions: 1 nM
trigeminal ganglion [6] = assay type: in vivo, Sprague Dawley rats
trigeminal ganglion [7] = tested on: trigeminal ganglion; design: species or system Sprague Dawley rats; conditions: rat, in vivo
[8] = tested on: C-fiber neurons of the trigeminal ganglion; design: species or system Sprague Dawley rats; conditions: rat, in vivo
[9] = design: species or system Sprague Dawley rats; conditions: rat, in vivo
[10] = design: species or system Sprague Dawley rats; conditions: rat, in vivo; remark: listed apart in the source
dorsal root ganglion = tested on: dorsal root ganglion; design: species or system patient; conditions: human, in vivo

T1 sequence (O35433 whole entry): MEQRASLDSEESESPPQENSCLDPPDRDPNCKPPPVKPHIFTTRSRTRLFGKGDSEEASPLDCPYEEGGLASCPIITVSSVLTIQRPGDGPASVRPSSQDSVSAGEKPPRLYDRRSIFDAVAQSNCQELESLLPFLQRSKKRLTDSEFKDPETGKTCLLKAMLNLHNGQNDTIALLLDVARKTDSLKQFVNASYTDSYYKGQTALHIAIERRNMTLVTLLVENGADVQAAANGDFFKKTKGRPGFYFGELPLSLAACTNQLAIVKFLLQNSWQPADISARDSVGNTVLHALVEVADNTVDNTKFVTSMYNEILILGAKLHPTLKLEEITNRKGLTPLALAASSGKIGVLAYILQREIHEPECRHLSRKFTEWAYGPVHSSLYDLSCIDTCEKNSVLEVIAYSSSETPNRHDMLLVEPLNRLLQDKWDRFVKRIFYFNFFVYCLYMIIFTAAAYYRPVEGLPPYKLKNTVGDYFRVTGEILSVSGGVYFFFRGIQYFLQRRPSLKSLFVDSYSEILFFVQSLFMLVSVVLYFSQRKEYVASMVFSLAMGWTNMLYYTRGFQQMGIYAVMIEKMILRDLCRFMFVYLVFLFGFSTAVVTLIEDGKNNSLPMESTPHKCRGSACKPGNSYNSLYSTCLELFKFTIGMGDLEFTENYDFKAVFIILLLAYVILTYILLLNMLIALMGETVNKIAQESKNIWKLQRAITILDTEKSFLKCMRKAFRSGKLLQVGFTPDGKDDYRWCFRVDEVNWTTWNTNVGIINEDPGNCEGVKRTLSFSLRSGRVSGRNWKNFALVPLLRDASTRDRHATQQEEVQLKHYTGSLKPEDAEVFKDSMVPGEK
T2 sequence (O35433 whole entry): as above
T3 sequence (O35433 whole entry): as above

## COc1cc(CNC(=O)CCCC/C=C/C(C)C)ccc1O [capsaicin]
VR1eGFP [1]
  current induced in voltage-clamped VR1eGFP cells: induced a large inward current
VR1eGFP-expressing cells; 1 uM
  mitochondrial reaction: mitochondria reacted rapidly
[2]
  thermal analgesia: No thermal analgesia

## Oc1cc2c(cc1O)CN(C(=S)NCCc1ccc(Cl)cc1)CCC2 [capsazepine]
VR1eGFP [1]
  effect on VR1eGFP-mediated current: attenuated
eGFP- and e-tagged VR1
  inhibition of [3H]RTX binding: almost completely inhibited

## C=C(C)[C@]12C[C@@H](C)[C@@]34O[C@](Cc5ccccc5)(O[C@@H]1[C@@H]3C=C(COC(=O)Cc1ccc(O)c(OC)c1)C[C@]1(O)C(=O)C(C)=C[C@@H]41)O2 [RTX, Resiniferatoxin]
VR1eGFP [1]
  currents and capacitance change in non-transfected cells: neither evoked currents nor induced a change in capacitance
  loss of plasma membrane: about 600 μm^2
  receptor desensitization: complete desensitization
VR1eGFP [1]; 125 pM
  drop of membrane capacitance of VR1eGFP-transfected cells: 6±2.5 pF
VR1eGFP [3]
  EC50: 0.1 ± 0.05 nM
[4]
  45Ca2+-uptake above the base line of non-transfected NIH3T3 cells: > 50 fold
VR1eGFP-expressing cells
  ER, plasma membrane and mitochondria morphology: dramatic fragmentation of the ER
  nuclear membrane fragmentation at lower doses: slower nuclear membrane fragmentation
VR1eGFP-expressing cells; 1 nM
  mitochondrial reaction: mitochondria reacted rapidly
  time to bursting of the plasma membrane: about 45 minutes
VR1eGFP [5]
  peak [Ca2+]i: 500 nM
  time to elevation of [Ca2+]i: ≤ 10 s
Trigeminal ganglion [6]; n=4
  eye wipes in the first minute: 7±3 wipes
Trigeminal ganglion [6]; rat, in vivo
  eye wipes in the first minute: no eye wipes
Trigeminal ganglion [7]
  plasma extravasation: dramatic blockade
[8]
  fate of CGRP-stained cells in the injected ganglion: killed
[9]
  paw withdrawal latency: 18 ± 1.2 s
[10]
  mechanical pinch sensitivity: No attenuation
Dorsal root ganglion
  symptoms of chronic pain: reduction of the symptoms of chronic pain
[2]; sc
  time without restoration of pain sensitivity (thermal analgesia): over 7 days
